# In PMC12363211, “Rationally designed self-assembled peptide nanofibers provoke robust humoral immunity against nervous necrosis virus” (Journal of Virology, 2025):
# Marks after values point to notes of the source that are not given here.
# Experiments:
# grouper = experiment: In vivo safety: survival, weight and pathology of vaccinated grouper; conditions: i.p. 2 mM, 28-day period
# Protocol: NNV-free pearl gentian grouper (Epinephelus lanceolatus × Epinephelus fuscoguttatus) juveniles (5.12 ± 0.63 g) were purchased from a commercial fish farm (Wenchang, Hainan, China). Real-time quantitative polymerase chain reaction (qPCR) was used to detect NNV in purchased fish. Primers of NNVdetection F: […] and NNVdetection R: […] were used for NNV detection. Grouper were reared in a recirculating water system with filtered seawater at 28.0 ± 1.0°C. Each tank contains 50 L seawater with continuous aeration. Fish were fed twice daily and acclimated for 15 days before experiments.
# Safety evaluation of the CP^64-83-Q11 nanofiber
# The safety evaluation of the synthesized nanofiber was assessed using in vitro and in vivo models. For the in vitro cytotoxicity evaluation, the standard MTT assay was employed. GF-1 cells and grouper macrophages were seeded into 96-well plates at a density of 5 × 10⁵ cells per well. These cells were then exposed to varying concentrations (1, 5, 10, 20, and 40 µg/mL) of Q11, CP^64-83, CP, or CP^64-83-Q11 for 24 h. […] Absorbance was then measured at 490 nm using a microplate reader. Cell viability was calculated as follows: Cell viability = (ODtreatment group − ODblank)/(ODcontrol group − ODblank) × 100%. […] Additionally, the initial and final weights of the fish were monitored throughout the 28-day period.
# [1] = Nanofiber self-assembly and morphology (TEM); type: physicochemical; conditions: in the salts (pH = 7)
# Protocol: CP^64-83-Q11 nanofiber synthesis and characteristics
# Q11, CP^64-83, and CP^64-83-Q11 peptides were synthesized and purified by Genecreate Co. (Wuhan). […] The morphology of the CP^64-83-Q11 was determined by transmission electron microscopy (TEM) using a Hitachi Model H-7700 microscope (Hitachi, Japan). The particle size of reassembled CP^64-83-Q11 was determined using a Zetasizer (nano ZS90, Malvern Panalytical, UK). The secondary structure of CP^64-83-Q11 nanovaccine was analyzed by circular dichroism (CD) spectra (Chirascan V100, Applied Photophysics, UK).
sequence,measurement,setting,value
"QQKFQFQFEQQ [Q11, Q11 peptide (…), a minimalist self-assembling motif]",Survival rate,"grouper; unchallenged vaccinated grouper, 78 fish per group, all groups incl. control share letter a",98.26 ± 3.37^a %
same,Final weight,"grouper; vaccinated grouper, initial weight 5.12 ± 0.63 g, all groups incl. control (8.96 ± 1.02) share letter a",8.72 ± 0.56^a g
same,self-assembly into nanofibers,[1],could self-assemble into nanofibers in the salts (pH = 7)
